Source: US20090093011A1, “Biosensors for ligand-directed functional selectivity” (priority 2007, published 2009)
pEC50: −log10 of the molar value. “Also recorded” adds a separate entry of the source. Read-outs that look alike come from different tables or passages of the source.

Experiments:
β2AR [1] = molecular target: T1, β2AR (Homo sapiens, UniProt P07550); experiment: Ligand-induced DMR signal, RWG biosensor, quiescent A431 cells; assay type: cell-based; design: A431 cells endogenously express large numbers of the β2AR; endogenous in cells; host or cells: A431 (human epidermoid carcinoma), quiescent; conditions: for type of DMR signal induced by the ligand alone: saturating concentration, quiescent A431 cells; for t1/2: P-DMR event, single phase exponential association fit; for N-DMR (pm): amplitude of N-DMR event; for P-DMR (pm): amplitude of P-DMR event; for t1/2 of the P-DMR event: one-phase exponential association; for transition time (τ in seconds): time for the P-DMR event to occur; for pEC50: DMR response at assay time of 50 min; for t1/2 of single-phase exponential decay of EC50 with assay time: EC50 as a function of assay time (FIG. 3c)
Description: Cell culture—Human epidermoid carcinoma A431 cells (American Type Cell Culture) were grown in Dulbecco's modified Eagle's medium (DMEM) supplemented with 10% fetal bovine serum (FBS), 4.5 g/liter glucose, 2 mM glutamine, and antibiotics. About 1.8×10^4 cells at passage 3 to 8 suspended in 50 μL the DMEM medium containing 10% FBS were placed in each well of a 384-well microplate, and were cultured at 37° C. under air/5% CO2 for about 1 day, followed by about 20 hr starvation through continuously culturing in the serum-free DMEM.
Optical biosensor system and cell assays—A Corning® Epic® wavelength interrogation system with an on-board liquid handling system was used. The system is standalone and consists of a temperature-control unit, an optical detection unit, and an on-board liquid handling unit with robotics. The temperature-control unit minimizes temperature fluctuations, if any. Inside this unit, there are two side-by-side stacks for holding both the sensor microplates and compound source plates. Once stable temperature is reached (typically within 1 hr), a sensor microplate is transferred by the robotics into the plate holder right above the detection system, while a source plate is moved to an appropriate compartment so that it is readily addressable by the on-board liquid handling unit.
The detection unit has integrated fiber optics to measure the wavelength shift of the resonant lights due to ligand-induced dynamic mass redistribution in living cells. A broadband white light source centered on 830 nm, generated through a fiber optic and a collimating lens at nominally normal incidence through the bottom of the microplate, is used to illuminate a small region of the grating surface. A detection fiber for recording the reflected light is bundled with the illumination fiber. A series of illumination/detection heads are arranged in a linear fashion, so that reflection spectra are collected from the 16-wells within the same column of a 384 well microplate at once.
(§1) For kinetic assays, the cells were washed with HBSS (Hanks Balanced Salt Solution with 20 mM HEPES) buffer. After 1 hour incubation within the detection system, the sensor plate was scanned and a baseline response was recorded. Then, compound solutions were transferred into the sensor plate using the on-board liquid handling system, and the cell responses were then recorded for another period of time. The lid of the sensor microplates was on throughout the assay, except of a short period of time (about 1 min.) when the compounds were introduced. The plate lid was handled automatically by the robotics. All studies were carried out at controlled temperature (28° C.).
Statistical analysis—Unless specifically mentioned, three replicates were carried out for each measurement or each compound. The standard deviation was derived from these measurements (n=3). […] All dose-dependent responses were analyzed using non-linear regression method with Prism software (available from Graph Pad).
Ligand-specific DMR signals—β2AR in A431 cells were selected as a model system for assaying ligand-directed functional selectivity, because of well-established signaling pathways of the β2AR in A431 as well as the availability of a rich source of structurally similar ligands having wide spectrum of efficacies. A431 cells endogenously express large numbers of the β2AR (about 34,000 copies per cells). To examine the functional selectivity of β2AR ligands, we used RWG biosensor to follow change in local mass density or distribution as a function of time upon stimulation with a saturating concentration of a ligand. The RWG biosensor detects an integrated response, termed as dynamic mass redistribution (DMR) signal, mediated through ligand-induced activation of the β2AR. The DMR signal approximates a global representation of the receptor activation and signaling, particularly for signaling events associated with dynamic relocation of cellular matters at or near the sensor surface.

β2AR [2] = molecular target: T1, β2AR; conditions: binding affinity reference value from literature sources; cited from earlier work
β2AR [3] = molecular target: T1, β2AR; experiment: Catechol co-stimulation of β2AR ligand-induced DMR signals in A431 cells; assay type: cell-based; design: A431 cells endogenously express large numbers of the β2AR; endogenous in cells; host or cells: A431 (human epidermoid carcinoma), quiescent; conditions: catechol of 500 μM; pindolol of 10 nM, epinephrine of 100 nM
Text: The ability of catechol to modulate the DMR signals induced by other ligands was examined. […] In embodiments the signaling of 600 or 610 can be completely separated, or can partially overlap.

β2AR [4] = molecular target: T1, β2AR; conditions: βARK- and PKA-mediated phosphorylation; cited from earlier work
dynamin = conditions: 2 nM epinephrine after pretreatment with 25 μM DIPC
Text: Although not bound by theory, a receptor internalization process is believed to result in a loss in local mass density or distribution within the sensing volume of the biosensor, leading to a negative contribution to the overall response. Since dynamin is known to play an important role in the ligand-induced β2AR internalization, we examined the effect of inhibiting dynamin activity on the ligand responses.

β2AR [5] = molecular target: T1, β2AR; conditions: dopamine of <100 μM; antagonist 1 μM
Description: as §1

T1 sequence (P07550 whole entry): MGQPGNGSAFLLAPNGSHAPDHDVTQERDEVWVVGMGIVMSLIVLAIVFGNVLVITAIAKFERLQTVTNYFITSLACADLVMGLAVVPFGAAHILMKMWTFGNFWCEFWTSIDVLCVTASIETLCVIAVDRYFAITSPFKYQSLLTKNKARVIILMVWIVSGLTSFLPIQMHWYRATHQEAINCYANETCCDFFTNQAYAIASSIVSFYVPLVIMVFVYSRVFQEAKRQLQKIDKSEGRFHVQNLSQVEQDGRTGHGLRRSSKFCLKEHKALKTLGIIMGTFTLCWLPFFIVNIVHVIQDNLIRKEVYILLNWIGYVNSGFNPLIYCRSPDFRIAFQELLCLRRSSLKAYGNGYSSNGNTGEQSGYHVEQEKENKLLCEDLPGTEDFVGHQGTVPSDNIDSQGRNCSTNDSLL

Row | Compound | type of DMR signal induced by the ligand alone (β2AR [1]) | t1/2 (β2AR [1]) | N-DMR (pm) (β2AR [1]) | P-DMR (pm) (β2AR [1]) | t1/2 of the P-DMR event (β2AR [1]) | transition time (τ in seconds) (β2AR [1]) | maximal amplitude of the P-DMR event, normalized to the epinephrine response (β2AR [1]; n=16) | other results
1 | NCCc1ccc(O)cc1 [tyramine] | complicated DMR signal | – | – | – | – | – | – | –
2 | NCCc1ccc(O)c(O)c1 [dopamine] | biphasic response | 8 ± 0.383 min | 31 ± 4 pm | 214 ± 32 pm | about 480 s | 252 ± 15 s | – | –
3 | CNCC(O)c1ccccc1 (centres unmarked) [halostachine] | – | – | – | – | – | – | – | −logKi (ref.) (β2AR [2]): 5.08(3); maximal amplitude of the P-DMR event, normalized to the epinephrine response (β2AR [1]): 90%; pEC50 (β2AR [1]): 4.63
4 | Oc1ccccc1O [catechol] | initial steady phase (termed as net-zero DMR) with a short duration, and a succeeding P-DMR | 4.82 ± 0.7 min | 0 ± 3 pm | 152 ± 13 pm | about 289 s | 130 ± 15 s | 66% | −logKi (ref.) (β2AR [2]): 3.80(3); transition time (τ) (β2AR [1]): about 140 sec; pEC50 (β2AR [1]): 3.30
5 | O=C(NCCNCC(O)COc1ccc(O)cc1)N1CCOCC1 (centres unmarked) [xamoterol] | initial steady phase (termed as net-zero DMR) with a short duration, and a succeeding P-DMR | 16.2 ± 2.5 min | 0 ± 5 pm | 75 ± 18 pm | about 974 s | 260 ± 26 s | – | –
6 | NCCc1ccccc1 [phenylethylamine] | complicated DMR signal | – | – | – | – | – | – | –
7 | CNC[C@H](O)c1ccc(O)c(O)c1 [epinephrine] | biphasic response | 8.68 ± 0.417 min | 37 ± 7 pm | 232 ± 12 pm | – | 132 ± 20 s | 100% | DMR signal on co-stimulation with catechol compared with individual signals (β2AR [3]): almost identical to that induced by 100 nM epinephrine alone; kobs of receptor phosphorylation (β2AR [4]): about 20 sec; t1/2 for the P-DMR event (dynamin): about 200 seconds; transition time (τ) (dynamin): about 120 sec; transition time (τ) (β2AR [1]): about 140 sec; t1/2 of single-phase exponential decay of EC50 with assay time (β2AR [1]): about 203 sec; duration of initial N-DMR (β2AR [1]; epinephrine response, FIG. 1): about 130 sec; duration of subsequent P-DMR (β2AR [1]; epinephrine response, FIG. 1): > 10 min
8 | CC(C)NCC(O)COc1cccc2[nH]ccc12 (centres unmarked) [pindolol] | initial steady phase (termed as net-zero DMR) with a short duration, and a succeeding P-DMR | 8.6 ± 0.783 min | 0 ± 4 pm | 142 ± 19 pm | – | 250 ± 15 s | 61% | DMR signal on co-stimulation with catechol compared with individual signals (β2AR [3]): closely resembled, but was not identical to, the sum of the two DMR signals; also recorded: close to the sum of the two DMR signals obtained individually
9 | O=C(CCCN1CCC2(CC1)C(=O)NCN2c1ccccc1)c1ccc(F)cc1 [spiperone] | – | – | – | – | – | – | – | inhibition of the dopamine response (β2AR [5]): neither 1 μM SCH 23390 nor 1 μM spiperone
10 | NC[C@H](O)c1ccc(O)c(O)c1 [norepinephrine] | biphasic response | 9.32 ± 0.25 min | 29 ± 5 pm | 209 ± 16 pm | – | 180 ± 17 s | 91% | t1/2 of single-phase exponential decay of EC50 with assay time (β2AR [1]): about 248 sec
